Format in all cases: cell-based
The target of one assay is T1, AGTR1 (Homo sapiens, UniProt P30556).
T1 construct: host or cells: Pathunter CHO-K1 AGTR1 β-arrestin cell line (CHO-K1)
T1 sequence (P30556 1-359): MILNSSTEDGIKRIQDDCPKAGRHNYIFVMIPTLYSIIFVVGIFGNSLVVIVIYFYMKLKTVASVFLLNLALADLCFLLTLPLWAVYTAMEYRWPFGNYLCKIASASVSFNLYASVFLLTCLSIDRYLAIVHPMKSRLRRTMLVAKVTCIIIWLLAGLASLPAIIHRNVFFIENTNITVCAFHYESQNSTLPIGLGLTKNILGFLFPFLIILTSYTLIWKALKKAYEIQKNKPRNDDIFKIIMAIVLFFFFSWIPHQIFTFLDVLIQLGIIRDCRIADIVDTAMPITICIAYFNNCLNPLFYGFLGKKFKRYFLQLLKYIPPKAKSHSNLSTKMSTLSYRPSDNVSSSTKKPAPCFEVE
Nature of the assay: DiscoveRx β-arrestin2 recruitment assay (enzyme complementation, Pathunter CHO-K1 AGTR1 β-arrestin cell line). The settings on record: DiscoveRx β-arrestin2 recruitment. The method in brief: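 CHO-K1 cells expressing AGTR1 with β-arrestin2 enzyme-complementation reporter, plated 14-16 h ahead in 1% serum medium, then exposed to compounds for 90 min at 37° C. Chemiluminescence read after 1 h detection. EC50 (agonist) or IC50 (antagonist) from 4-parameter logistic fit; activity as percentage of All maximal effect.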
Background: Activated receptors often draw arrestin, which recruitment assays turn into a signal.

In assay [1] the target is T2, hAT1R (Homo sapiens, UniProt P30556).
T2 sequence (P30556 1-359): T1 sequence (P30556 1-359)
Nature of the assay: BRET β-arrestin2 biosensor assay, higher receptor expression (hAT1R 5 ng/well), HEK293 cells. The conditions noted are these: for EC50: High AT1R Expression. (Bioluminescence resonance energy transfer reports proximity on the nanometre scale.)

Assay [2] addresses T2, hAT1R. Nature of the assay: BRET Gq biosensor assay, agonist response, HEK293 cells. The settings on record: section of the 42nd table directly before the BRET P63 section. As for the experimental part:
BRET β-arrestin2 and Gq Activation Assays
In another aspect of the invention, association of the ATIR with signaling proteins is assessed using bioluminescence resonance energy transfer assays (Stephane Angers, Ali Salahpour et al. 2002). This technology measures the association between bioluminescent and fluorescent protein tags.
Several of the plasmid constructs used in BRET experiments were previously described. Briefly, the coding sequence of β-arrestin2 was fused to Renilla luciferase II to generate β-arrestin2-Rluc (Quoyer, Janz et al. 2013). The membrane targeting motif from K-Ras, CAAX motif (GKKKKKKSKTKCVIM), was fused to Renilla GFP to create rGFP-CAAX plasmid (Namkung Y et al., Nat Commun (2016) 7, 12178). The Renilla luciferase II was inserted in the Gaq protein to generate Gaq-Rluc (Breton, Sauvageau et al. 2010). The Gγ1 protein was tagged with GFP10 to obtain GFP-Gyl, using the same strategy described previously for GFP-Gy2 (Gales, Rebois et al. 2005). The Gaq binding domain of the p63RhoGEF protein (amino acids 295-502) was fused to Renilla luciferase II to create P63-Rluc. Finally, the hAT1R plasmid construct encoding the receptor was generated by optimizing the coding sequence of human angiotensin II receptor (GeneOptimizer from ThermoFisher), and adding an artificial cleavable signal peptide from bovine prolactin ([…]) in N-terminus of the receptor to increase cell surface expression.
Gq Biosensor Assay HEK293 cells were cultured in DMEM supplemented with Penicillin-Streptomycin and 10% fetal bovine serum. Two days before the BRET experiment, HEK293 cells were transfected with hAT1R expression plasmid (200 ng/well) as well as Gaq-Rluc (100 ng/well), Gβ1 (375 ng/well) and GFP-Gγ1 (625 ng/well), using linear polyethylenimine 25 kDa (PEI) at a PEI:DNA ratio of 3:1. Transfected cells were directly seeded in 96-well plates, at a density of 35 000 cells per well, and maintained in culture for the next 48 h.
BRET experiments were carried out subsequently using the following procedures: cells were washed once with Tyrode's buffer (137 mM NaCl, 1 mM CaCl2, 0.9 mM KCl, […], 3.6 mM NaH2PO4, 5.5 mM glucose, 12 mM NaHCO3, and 25 mM HEPES, pH 7.4) and 90 μl of Tyrode's buffer was added to each well. Cells were equilibrated in their new buffer at room temperature for at least 30 minutes. Following the equilibration period, the coelenterazine substrate was first added to the cells, 10 μl per well of a 10×solution (prolume purple coelenterazine at a final concentration of 2 μM), immediately followed by compound addition using the HP D300 digital dispenser from Tecan (10 singlicate concentrations). Cells were incubated for 5 min at room temperature and BRET readings were then collected using a Synergy Neo Multi-Mode reader from BioTek with BRET2 filters 410/515, to record agonist response. […] A second reading was collected 5 min after this second addition, using the Synergy Neo Multi-Mode reader from BioTek with BRET2 filters 410/515, to record antagonist response. The BRET signal was determined by calculating the ratio of the light emitted by GFP (515 nm) over the light emitted by the Rluc (410 nm). To analyze agonist response, BRET signal values were converted into percentage of activation using the non-stimulated control as 0% and AngII maximal response as 100%. Sigmoidal concentration-response curves were generated with those normalized values using a 4-parameter logistic equation (IDBS ActivityBase software), to determine EC50 of the different compounds. In the case of antagonist response analysis, BRET signal values were converted into percentage of inhibition using the fixed dose of AngII (corresponding to the EC50) as 0% and non-stimulated control as 100%. Sigmoidal concentration-response curves were generated with those normalized values using a 4-parameter logistic equation (IDBS ActivityBase software), to determine IC50 of the different compounds.

Usually EC50 stands for the concentration at which the effect is half-maximal. Turning to `CCCCc1nc(Cl)c(C(=O)O)n1Cc1ccc(-c2cc(-c3ccc(C(=O)N(C)C)cc3)ccc2-c2noc(=O)[nH]2)cc1` [Example 409], the EC50 amounted to 59.3 nM at AGTR1, 73.2 nM at hAT1R [1] and 136 nM on hAT1R [2]. Also, the “DiscoveRx β-arrestin2 Ymax (%)” value on AGTR1 (maximal response) was 50.6%. On hAT1R [1], the “BRET β-Arrestin2 High AT1R Expression Ymax (%)” value was 88.7%.
As to `CCCCc1nc(Cl)c(C(=O)O)n1Cc1ccc(-c2cc(-c3cccc(C(F)F)n3)ccc2-c2nn[nH]n2)cc1` [Example 423, 2-butyl-4-chloro-1-((5′-(6-(difluoromethyl)pyridin-2-yl)-2′-(2H-tetrazol-5-yl)-[1,1′-biphenyl]-4-yl)methyl)-1H-imidazole-5-carboxylic acid], the EC50 on AGTR1 was determined as 22.9 nM; on hAT1R [1] it was 26 nM; at hAT1R [2], 25.4 nM. Besides, the “DiscoveRx β-arrestin2 Ymax (%)” value on AGTR1 (maximal response) was 22.8%. On hAT1R [1], the “BRET β-Arrestin2 High AT1R Expression Ymax (%)” value was 73.3%.
The like results for `CCCc1nc(C(C)(C)O)c(C(=O)OCC)n1Cc1ccc(-c2cc(-c3ccccc3)ccc2-c2nn[nH]n2)cc1` [Example 401, ethyl 1-((6′-(2H-tetrazol-5-yl)-[1,1′:3′,1″-terphenyl]-4-yl)methyl)-4-(2-hydroxypropan-2-yl)-2-propyl-1H-imidazole-5-carboxylate] were, in that order, 544 nM, 256 nM, 2240 nM, 43.7% and 74.5%.
The like results for `CCCCc1ncc(C(=O)NC2CCCCC2)n1Cc1ccc(-c2cc(-c3ccccc3)ccc2-c2nn[nH]n2)cc1` [Example 354] were, in that order, 59.9 nM, 19.3 nM, 45.5 nM, 48.3% and 99.5%.
In the same order, the values of `O=C(O)c1cccc2nc(O)n(Cc3ccc(-c4cc(-c5ccccc5)ccc4-c4nn[nH]n4)cc3)c12` [Example 317] are 87.2 nM, 319 nM, 17100 nM, 51.5% and 39.8%.
For `CCCCc1ncc(C(=O)NCCO)n1Cc1ccc(-c2cc(-c3ccccc3)ccc2C(=O)O)cc1` [Example 414], the figures for the EC50 on AGTR1, on hAT1R [1] and on hAT1R [2] were 166 nM, 505 nM and 460 nM, respectively. Further, at AGTR1 (maximal response), the “DiscoveRx β-arrestin2 Ymax (%)” value was 21.5%. For the same molecule, the “BRET β-Arrestin2 High AT1R Expression Ymax (%)” value on hAT1R [1] came out at 36.4%.
The like results for `CCCCc1ncc(C(=O)NCc2cc(C(C)C)no2)n1Cc1ccc(-c2cc(-c3ccccc3)ccc2-c2nn[nH]n2)cc1` [Example 363] were, in that order, 10.7 nM, 23.8 nM, 59.6 nM, 46.2% and 100.4%.
The like results for `CCCCc1ncc(C(=O)NC(C)(C)COC)n1Cc1ccc(-c2cc(-c3ccccc3)ccc2-c2nn[nH]n2)cc1` [Example 361] were, in that order, 97.8 nM, 128 nM, 296 nM, 29.3% and 61.3%.
The like results for `CCCCc1ncc(C(=O)Nc2ccc(C)nn2)n1Cc1ccc(-c2cc(-c3ccccc3)ccc2-c2nn[nH]n2)cc1` [Example 376] were, in that order, 18.5 nM, 45.5 nM, 123 nM, 22.1% and 44.2%.
In the case of `CCCCC(=O)N(Cc1ccc(-c2cc(-c3ccc4ncccc4c3)ccc2-c2nn[nH]n2)cc1)[C@H](C(=O)O)C(C)C` [Example 441], at AGTR1, the “DiscoveRx β-arrestin2 Ymax (%)” value came out at 39.3% and the response was half-maximal at 101 nM (EC50). Further, at hAT1R [1], the “BRET β-Arrestin2 High AT1R Expression Ymax (%)” value stood at 64.3% and the EC50 is 57 nM. Besides, the EC50 at hAT1R [2] was greater than 100000 nM.
Regarding `CCCCc1ncc(C(=O)NCCO)n1Cc1ccc(-c2cc(-c3ccccc3)ccc2-c2nn[nH]n2)cc1` [Example 348], the EC50 at AGTR1 worked out at 7.3 nM; on hAT1R [1], 34.3 nM; at hAT1R [2], 89.2 nM. Besides, the “DiscoveRx β-arrestin2 Ymax (%)” value on AGTR1 (maximal response) is 50.9%. In addition, at hAT1R [1], the “BRET β-Arrestin2 High AT1R Expression Ymax (%)” value is listed as 85.4%.
In the same order, the values of `CCCCc1ncc(C(=O)NCCC)n1Cc1ccc(-c2cc(-c3ccccc3)ccc2-c2nn[nH]n2)cc1` [Example 372] are 58.8 nM, 44.8 nM, 73.8 nM, 41.7% and 78.9%.
In the same order, the values of `CCCCc1nc(Cl)c(C(=O)O)n1Cc1ccc(-c2cc(-c3cnn(C)c3)ccc2-c2nn[nH]n2)cc1` [Example 389] are 91.8 nM, 189 nM, 2020 nM, 26.7% and 35.3%.
Turning to `CCCCC(=O)N(Cc1ccc(-c2cc(-c3cc(F)cc(F)c3)ccc2-c2nn[nH]n2)cc1)[C@H](C(=O)O)C(C)C` [Example 438, (S)-2-(N-((3″,5″-Difluoro-6′-(2H-tetrazol-5-yl)-[1,1′:3′,1″-terphenyl]-4-yl)methyl)pentanamido)-3-methylbutanoic acid], at AGTR1, the “DiscoveRx β-arrestin2 Ymax (%)” value is 41.7% and it took 20.4 nM to reach a half-maximal effect (EC50). Besides, at hAT1R [1], the “BRET β-Arrestin2 High AT1R Expression Ymax (%)” value turned out to be 74.6% and it took 34.8 nM to reach a half-maximal effect (EC50). In addition, at hAT1R [2], the EC50 came to 718 nM.
As for `CCCCc1ncc(C(=O)NC2CCC2)n1Cc1ccc(-c2cc(-c3ccccc3)ccc2-c2nn[nH]n2)cc1` [Example 380], the EC50 stood at 59.2 nM at AGTR1, 35 nM at hAT1R [1] and 104 nM at hAT1R [2]. Besides, the “DiscoveRx β-arrestin2 Ymax (%)” value at AGTR1 (maximal response) was 43.1%. In addition, the “BRET β-Arrestin2 High AT1R Expression Ymax (%)” value at hAT1R [1] came out at 76.0%.
In the case of `CCCCc1nc(Cl)c(C(=O)O)n1Cc1ccc(-c2cc(N3CCC[C@H](C)C3)ccc2-c2noc(=O)[nH]2)cc1` [Example 407, (S)-2-butyl-4-chloro-1-((5′-(3-methylpiperidin-1-yl)-2′-(5-oxo-4,5-dihydro-1,2,4-oxadiazol-3-yl)-[1,1′-biphenyl]-4-yl)methyl)-1H-imidazole-5-carboxylic acid], the EC50 came to 173 nM on AGTR1 and 16600 nM on hAT1R [2]. Besides, the “DiscoveRx β-arrestin2 Ymax (%)” value at AGTR1 (maximal response) is given as 24.6%.
